The results in this text go back to ChEMBL document CHEMBL5442219.

What all share (details): Compound concentration 10 µM
In test [1] the target is T1, Alpha-1A adrenergic receptor (Homo sapiens) (UniProt P35348).
T1 sequence (whole entry): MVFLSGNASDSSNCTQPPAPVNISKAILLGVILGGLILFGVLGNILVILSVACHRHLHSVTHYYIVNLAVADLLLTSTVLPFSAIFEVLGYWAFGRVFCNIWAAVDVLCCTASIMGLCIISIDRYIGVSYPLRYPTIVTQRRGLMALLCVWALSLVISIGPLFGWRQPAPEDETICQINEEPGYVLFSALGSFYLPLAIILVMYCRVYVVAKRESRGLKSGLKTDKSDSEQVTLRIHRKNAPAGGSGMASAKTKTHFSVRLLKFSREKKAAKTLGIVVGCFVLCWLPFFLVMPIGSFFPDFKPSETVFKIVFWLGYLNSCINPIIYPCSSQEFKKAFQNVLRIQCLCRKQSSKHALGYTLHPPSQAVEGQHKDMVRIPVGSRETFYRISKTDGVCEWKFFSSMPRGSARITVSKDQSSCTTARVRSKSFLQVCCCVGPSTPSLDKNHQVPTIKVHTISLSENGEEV
Description: PDSP Primary Binding target: ADRA1A - Compounds are tested at 10 uM concentration, plate are incubated at room temperature in the dark for 90 minutes. Reaction are stopped by vacuum filtration onto 0.3% polyethyleneimine soaked filter mats using Filtermate harvester. Scintilation cocktail is then melted onto microwave-dried filters on a hot plate and the radio activity is counted in Microbia counter.

In test [2] the target is Beta-1 adrenergic receptor (Homo sapiens) (UniProt P08588).
Description: PDSP Primary Binding target: ADRB1 - Compounds are tested at 10 uM concentration, plate are incubated at room temperature in the dark for 90 minutes. Reaction are stopped by vacuum filtration onto 0.3% polyethyleneimine soaked filter mats using Filtermate harvester. Scintilation cocktail is then melted onto microwave-dried filters on a hot plate and the radio activity is counted in Microbia counter.
Test [3] concerns the target T2, Muscarinic acetylcholine receptor M5 (Homo sapiens) (UniProt P08912).
T2 sequence (whole entry): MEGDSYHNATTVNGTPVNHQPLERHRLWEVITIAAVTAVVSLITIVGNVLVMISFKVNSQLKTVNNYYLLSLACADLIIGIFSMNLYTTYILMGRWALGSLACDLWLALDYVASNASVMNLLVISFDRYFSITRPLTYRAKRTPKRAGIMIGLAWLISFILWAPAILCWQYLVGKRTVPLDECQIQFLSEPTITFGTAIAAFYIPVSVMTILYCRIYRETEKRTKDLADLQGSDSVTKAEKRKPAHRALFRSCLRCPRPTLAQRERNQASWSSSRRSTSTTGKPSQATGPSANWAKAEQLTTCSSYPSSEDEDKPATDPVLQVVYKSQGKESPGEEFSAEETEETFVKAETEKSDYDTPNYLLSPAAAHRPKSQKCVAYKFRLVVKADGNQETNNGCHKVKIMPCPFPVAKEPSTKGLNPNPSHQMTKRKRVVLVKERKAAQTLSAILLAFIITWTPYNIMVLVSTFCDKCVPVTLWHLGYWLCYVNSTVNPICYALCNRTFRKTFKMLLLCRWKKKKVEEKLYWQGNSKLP
Description: PDSP Primary Binding target: CHRM5 - Compounds are tested at 10 uM concentration, plate are incubated at room temperature in the dark for 90 minutes. Reaction are stopped by vacuum filtration onto 0.3% polyethyleneimine soaked filter mats using Filtermate harvester. Scintilation cocktail is then melted onto microwave-dried filters on a hot plate and the radio activity is counted in Microbia counter.

Test [4] deals with 5-hydroxytryptamine receptor 1E (Homo sapiens) (UniProt P28566).
5-hydroxytryptamine receptor 1E (Homo sapiens), sequence (P28566 whole entry): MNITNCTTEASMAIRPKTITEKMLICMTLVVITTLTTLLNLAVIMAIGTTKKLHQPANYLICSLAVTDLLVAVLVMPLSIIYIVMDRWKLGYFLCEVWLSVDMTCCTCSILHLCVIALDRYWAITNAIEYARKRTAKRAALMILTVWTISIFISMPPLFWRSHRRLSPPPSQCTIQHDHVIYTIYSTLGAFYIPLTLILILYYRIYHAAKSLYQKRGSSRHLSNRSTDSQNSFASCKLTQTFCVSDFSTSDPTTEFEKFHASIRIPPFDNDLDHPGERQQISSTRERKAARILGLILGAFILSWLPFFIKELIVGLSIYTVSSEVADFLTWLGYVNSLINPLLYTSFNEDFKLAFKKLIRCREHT
Description: PDSP Primary Binding target: HTR1E - Compounds are tested at 10 uM concentration, plate are incubated at room temperature in the dark for 90 minutes. Reaction are stopped by vacuum filtration onto 0.3% polyethyleneimine soaked filter mats using Filtermate harvester. Scintilation cocktail is then melted onto microwave-dried filters on a hot plate and the radio activity is counted in Microbia counter.
The target in test [5] is 5-hydroxytryptamine receptor 1D (Homo sapiens) (UniProt P28221).
5-hydroxytryptamine receptor 1D (Homo sapiens), sequence (P28221 whole entry): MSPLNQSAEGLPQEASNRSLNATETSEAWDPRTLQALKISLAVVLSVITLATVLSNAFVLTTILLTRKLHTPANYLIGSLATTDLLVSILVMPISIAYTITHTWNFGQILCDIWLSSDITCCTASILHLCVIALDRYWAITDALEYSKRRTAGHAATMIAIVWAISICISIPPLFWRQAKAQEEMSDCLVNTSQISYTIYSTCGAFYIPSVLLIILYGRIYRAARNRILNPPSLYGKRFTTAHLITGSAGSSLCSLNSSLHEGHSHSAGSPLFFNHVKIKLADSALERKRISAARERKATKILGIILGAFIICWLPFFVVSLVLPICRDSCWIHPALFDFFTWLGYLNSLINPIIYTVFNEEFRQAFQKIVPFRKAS
Description: PDSP Primary Binding target: HTR1D - Compounds are tested at 10 uM concentration, plate are incubated at room temperature in the dark for 90 minutes. Reaction are stopped by vacuum filtration onto 0.3% polyethyleneimine soaked filter mats using Filtermate harvester. Scintilation cocktail is then melted onto microwave-dried filters on a hot plate and the radio activity is counted in Microbia counter.
The target in test [6] is Mu-type opioid receptor (Homo sapiens) (UniProt P35372).
Mu-type opioid receptor (Homo sapiens), sequence (P35372 whole entry): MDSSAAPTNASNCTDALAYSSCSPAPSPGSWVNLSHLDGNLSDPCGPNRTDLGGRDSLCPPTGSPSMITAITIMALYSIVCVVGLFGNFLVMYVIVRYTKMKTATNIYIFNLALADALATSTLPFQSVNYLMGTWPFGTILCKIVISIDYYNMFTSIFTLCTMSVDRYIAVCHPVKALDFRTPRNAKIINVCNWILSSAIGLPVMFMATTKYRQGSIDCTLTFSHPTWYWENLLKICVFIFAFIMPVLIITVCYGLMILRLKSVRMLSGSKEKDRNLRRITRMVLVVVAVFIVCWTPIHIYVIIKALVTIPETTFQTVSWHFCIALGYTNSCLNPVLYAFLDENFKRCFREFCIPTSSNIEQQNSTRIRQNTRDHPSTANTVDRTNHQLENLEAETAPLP
Description: PDSP Primary Binding target: OPRM1 - Compounds are tested at 10 uM concentration, plate are incubated at room temperature in the dark for 90 minutes. Reaction are stopped by vacuum filtration onto 0.3% polyethyleneimine soaked filter mats using Filtermate harvester. Scintilation cocktail is then melted onto microwave-dried filters on a hot plate and the radio activity is counted in Microbia counter.
Test [7] concerns the target T3, Alpha-1D adrenergic receptor (Homo sapiens) (UniProt P25100).
T3 sequence (whole entry): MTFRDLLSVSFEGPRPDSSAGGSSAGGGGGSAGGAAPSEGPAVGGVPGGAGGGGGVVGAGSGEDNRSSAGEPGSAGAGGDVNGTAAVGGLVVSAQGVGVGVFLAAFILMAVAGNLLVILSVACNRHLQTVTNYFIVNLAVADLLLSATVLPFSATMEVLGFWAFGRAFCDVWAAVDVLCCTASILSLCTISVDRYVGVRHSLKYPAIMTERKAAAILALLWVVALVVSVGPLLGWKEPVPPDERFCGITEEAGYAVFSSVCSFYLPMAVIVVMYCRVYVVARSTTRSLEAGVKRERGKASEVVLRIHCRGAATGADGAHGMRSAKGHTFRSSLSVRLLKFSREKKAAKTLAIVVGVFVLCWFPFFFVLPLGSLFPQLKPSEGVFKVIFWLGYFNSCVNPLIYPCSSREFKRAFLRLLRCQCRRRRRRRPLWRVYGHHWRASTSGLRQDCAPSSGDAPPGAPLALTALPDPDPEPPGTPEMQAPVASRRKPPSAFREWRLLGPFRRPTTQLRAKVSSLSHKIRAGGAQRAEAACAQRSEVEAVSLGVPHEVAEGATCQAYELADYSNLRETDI
Description: PDSP Primary Binding target: ADRA1D - Compounds are tested at 10 uM concentration, plate are incubated at room temperature in the dark for 90 minutes. Reaction are stopped by vacuum filtration onto 0.3% polyethyleneimine soaked filter mats using Filtermate harvester. Scintilation cocktail is then melted onto microwave-dried filters on a hot plate and the radio activity is counted in Microbia counter.

The target of test [8] is 5-hydroxytryptamine receptor 5A (Homo sapiens) (UniProt P47898).
5-hydroxytryptamine receptor 5A (Homo sapiens), sequence (P47898 whole entry): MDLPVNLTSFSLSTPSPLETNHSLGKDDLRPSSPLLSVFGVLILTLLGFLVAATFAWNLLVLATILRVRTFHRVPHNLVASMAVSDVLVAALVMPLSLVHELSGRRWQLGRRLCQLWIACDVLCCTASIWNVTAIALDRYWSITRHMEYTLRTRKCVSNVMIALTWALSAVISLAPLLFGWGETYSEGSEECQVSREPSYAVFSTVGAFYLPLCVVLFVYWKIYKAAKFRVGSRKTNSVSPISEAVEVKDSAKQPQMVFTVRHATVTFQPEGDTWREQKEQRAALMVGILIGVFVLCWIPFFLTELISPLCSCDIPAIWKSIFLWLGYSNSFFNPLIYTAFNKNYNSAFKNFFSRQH
Description: PDSP Primary Binding target: HTR5A - Compounds are tested at 10 uM concentration, plate are incubated at room temperature in the dark for 90 minutes. Reaction are stopped by vacuum filtration onto 0.3% polyethyleneimine soaked filter mats using Filtermate harvester. Scintilation cocktail is then melted onto microwave-dried filters on a hot plate and the radio activity is counted in Microbia counter.
Test [9] has as its target T4, 5-hydroxytryptamine receptor 1A (Homo sapiens) (UniProt P08908).
T4 sequence (whole entry): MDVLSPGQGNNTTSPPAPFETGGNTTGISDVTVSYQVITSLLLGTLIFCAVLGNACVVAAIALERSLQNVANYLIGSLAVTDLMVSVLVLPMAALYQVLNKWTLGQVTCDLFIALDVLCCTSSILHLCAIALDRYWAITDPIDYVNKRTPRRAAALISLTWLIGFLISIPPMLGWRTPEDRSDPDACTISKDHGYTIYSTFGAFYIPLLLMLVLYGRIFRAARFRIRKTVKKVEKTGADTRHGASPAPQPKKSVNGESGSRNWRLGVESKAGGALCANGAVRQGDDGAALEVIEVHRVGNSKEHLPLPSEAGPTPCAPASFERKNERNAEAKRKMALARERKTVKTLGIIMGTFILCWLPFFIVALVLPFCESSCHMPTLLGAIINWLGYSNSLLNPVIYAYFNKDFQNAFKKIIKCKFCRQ
Description: PDSP Primary Binding target: HTR1A - Compounds are tested at 10 uM concentration, plate are incubated at room temperature in the dark for 90 minutes. Reaction are stopped by vacuum filtration onto 0.3% polyethyleneimine soaked filter mats using Filtermate harvester. Scintilation cocktail is then melted onto microwave-dried filters on a hot plate and the radio activity is counted in Microbia counter.

In test [10] the target is 5-hydroxytryptamine receptor 1B (Homo sapiens) (UniProt P28222).
5-hydroxytryptamine receptor 1B (Homo sapiens), sequence (P28222 whole entry): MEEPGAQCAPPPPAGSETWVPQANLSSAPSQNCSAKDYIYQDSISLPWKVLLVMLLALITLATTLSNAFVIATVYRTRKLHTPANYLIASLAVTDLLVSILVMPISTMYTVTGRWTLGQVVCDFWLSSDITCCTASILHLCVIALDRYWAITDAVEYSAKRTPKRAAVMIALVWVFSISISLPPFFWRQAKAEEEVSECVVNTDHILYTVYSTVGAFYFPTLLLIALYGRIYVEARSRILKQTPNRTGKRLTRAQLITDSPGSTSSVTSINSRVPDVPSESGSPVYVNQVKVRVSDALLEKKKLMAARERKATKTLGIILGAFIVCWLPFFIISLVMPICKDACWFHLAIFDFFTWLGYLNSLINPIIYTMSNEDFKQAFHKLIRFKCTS
Description: PDSP Primary Binding target: HTR1B - Compounds are tested at 10 uM concentration, plate are incubated at room temperature in the dark for 90 minutes. Reaction are stopped by vacuum filtration onto 0.3% polyethyleneimine soaked filter mats using Filtermate harvester. Scintilation cocktail is then melted onto microwave-dried filters on a hot plate and the radio activity is counted in Microbia counter.
Test [11] deals with Histamine H3 receptor (Homo sapiens) (UniProt Q9Y5N1).
Histamine H3 receptor (Homo sapiens), sequence (Q9Y5N1 whole entry): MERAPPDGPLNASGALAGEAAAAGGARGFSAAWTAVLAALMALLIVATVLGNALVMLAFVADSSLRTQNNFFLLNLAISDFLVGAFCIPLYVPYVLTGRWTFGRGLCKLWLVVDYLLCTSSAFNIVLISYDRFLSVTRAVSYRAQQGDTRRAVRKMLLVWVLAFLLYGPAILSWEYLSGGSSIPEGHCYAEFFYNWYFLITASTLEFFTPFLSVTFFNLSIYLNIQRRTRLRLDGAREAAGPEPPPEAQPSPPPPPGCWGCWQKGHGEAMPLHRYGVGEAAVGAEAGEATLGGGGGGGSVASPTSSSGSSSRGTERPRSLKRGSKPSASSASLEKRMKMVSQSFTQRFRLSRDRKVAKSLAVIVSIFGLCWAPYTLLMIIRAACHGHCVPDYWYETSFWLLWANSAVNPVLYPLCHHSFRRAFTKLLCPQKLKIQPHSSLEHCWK
Description: PDSP Primary Binding target: HRH3 - Compounds are tested at 10 uM concentration, plate are incubated at room temperature in the dark for 90 minutes. Reaction are stopped by vacuum filtration onto 0.3% polyethyleneimine soaked filter mats using Filtermate harvester. Scintilation cocktail is then melted onto microwave-dried filters on a hot plate and the radio activity is counted in Microbia counter.
Test [12] deals with 5-hydroxytryptamine receptor 2A (Homo sapiens) (UniProt P28223).
5-hydroxytryptamine receptor 2A (Homo sapiens), sequence (P28223 whole entry): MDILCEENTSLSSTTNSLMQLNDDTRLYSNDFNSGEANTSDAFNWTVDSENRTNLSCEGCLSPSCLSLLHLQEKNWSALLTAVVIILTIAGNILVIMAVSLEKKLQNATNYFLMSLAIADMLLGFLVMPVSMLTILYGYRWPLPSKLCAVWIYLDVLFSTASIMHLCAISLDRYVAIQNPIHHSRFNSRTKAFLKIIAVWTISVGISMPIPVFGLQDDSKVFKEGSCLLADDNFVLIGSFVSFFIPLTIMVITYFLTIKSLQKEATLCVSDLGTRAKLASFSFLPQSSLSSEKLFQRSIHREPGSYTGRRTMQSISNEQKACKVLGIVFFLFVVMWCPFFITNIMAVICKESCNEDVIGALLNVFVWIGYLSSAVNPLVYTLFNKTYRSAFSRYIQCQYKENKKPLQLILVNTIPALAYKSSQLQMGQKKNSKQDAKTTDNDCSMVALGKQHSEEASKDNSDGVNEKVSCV
Description: PDSP Primary Binding target: HTR2A - Compounds are tested at 10 uM concentration, plate are incubated at room temperature in the dark for 90 minutes. Reaction are stopped by vacuum filtration onto 0.3% polyethyleneimine soaked filter mats using Filtermate harvester. Scintilation cocktail is then melted onto microwave-dried filters on a hot plate and the radio activity is counted in Microbia counter.
Test [13] addresses Sodium-dependent dopamine transporter (Homo sapiens) (UniProt Q01959).
Description: PDSP Primary Binding target: SLC6A3 - Compounds are tested at 10 uM concentration, plate are incubated at room temperature in the dark for 90 minutes. Reaction are stopped by vacuum filtration onto 0.3% polyethyleneimine soaked filter mats using Filtermate harvester. Scintilation cocktail is then melted onto microwave-dried filters on a hot plate and the radio activity is counted in Microbia counter.
The target of test [14] is Histamine H1 receptor (Homo sapiens) (UniProt P35367).
Histamine H1 receptor (Homo sapiens), sequence (P35367 whole entry): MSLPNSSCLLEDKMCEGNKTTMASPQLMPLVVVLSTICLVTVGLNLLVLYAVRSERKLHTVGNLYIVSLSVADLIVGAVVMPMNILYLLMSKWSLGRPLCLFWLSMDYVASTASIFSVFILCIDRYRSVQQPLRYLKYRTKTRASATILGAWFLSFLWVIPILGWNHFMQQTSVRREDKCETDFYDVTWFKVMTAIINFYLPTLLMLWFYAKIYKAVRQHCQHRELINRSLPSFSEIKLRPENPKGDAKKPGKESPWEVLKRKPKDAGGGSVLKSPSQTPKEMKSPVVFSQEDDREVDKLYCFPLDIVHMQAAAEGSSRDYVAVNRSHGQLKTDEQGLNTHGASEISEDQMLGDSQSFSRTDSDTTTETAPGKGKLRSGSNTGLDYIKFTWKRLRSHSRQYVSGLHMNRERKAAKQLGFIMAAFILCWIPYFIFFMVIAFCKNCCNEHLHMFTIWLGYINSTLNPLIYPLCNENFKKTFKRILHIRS
Description: PDSP Primary Binding target: HRH1 - Compounds are tested at 10 uM concentration, plate are incubated at room temperature in the dark for 90 minutes. Reaction are stopped by vacuum filtration onto 0.3% polyethyleneimine soaked filter mats using Filtermate harvester. Scintilation cocktail is then melted onto microwave-dried filters on a hot plate and the radio activity is counted in Microbia counter.
The target of test [15] is Sodium-dependent serotonin transporter (Homo sapiens) (UniProt P31645).
Sodium-dependent serotonin transporter (Homo sapiens), sequence (P31645 whole entry, looked up): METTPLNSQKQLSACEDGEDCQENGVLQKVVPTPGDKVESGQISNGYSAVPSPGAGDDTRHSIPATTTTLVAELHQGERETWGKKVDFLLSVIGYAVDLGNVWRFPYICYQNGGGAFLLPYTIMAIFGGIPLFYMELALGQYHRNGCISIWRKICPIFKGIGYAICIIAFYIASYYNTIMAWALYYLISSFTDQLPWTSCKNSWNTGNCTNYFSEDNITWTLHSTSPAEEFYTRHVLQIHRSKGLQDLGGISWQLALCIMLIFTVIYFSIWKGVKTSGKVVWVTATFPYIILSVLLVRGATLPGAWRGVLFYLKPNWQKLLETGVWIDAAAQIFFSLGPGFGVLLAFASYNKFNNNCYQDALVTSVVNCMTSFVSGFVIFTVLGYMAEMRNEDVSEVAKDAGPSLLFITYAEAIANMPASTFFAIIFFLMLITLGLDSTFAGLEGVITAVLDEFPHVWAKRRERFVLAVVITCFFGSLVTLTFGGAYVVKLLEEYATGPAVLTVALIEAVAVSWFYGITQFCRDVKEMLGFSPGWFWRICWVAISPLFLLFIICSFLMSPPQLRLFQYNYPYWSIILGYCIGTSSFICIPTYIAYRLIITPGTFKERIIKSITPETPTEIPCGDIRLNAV
Description: PDSP Primary Binding target: SLC6A4 - Compounds are tested at 10 uM concentration, plate are incubated at room temperature in the dark for 90 minutes. Reaction are stopped by vacuum filtration onto 0.3% polyethyleneimine soaked filter mats using Filtermate harvester. Scintilation cocktail is then melted onto microwave-dried filters on a hot plate and the radio activity is counted in Microbia counter.

Sodium-dependent dopamine transporter (Homo sapiens), sequence (Q01959 whole entry): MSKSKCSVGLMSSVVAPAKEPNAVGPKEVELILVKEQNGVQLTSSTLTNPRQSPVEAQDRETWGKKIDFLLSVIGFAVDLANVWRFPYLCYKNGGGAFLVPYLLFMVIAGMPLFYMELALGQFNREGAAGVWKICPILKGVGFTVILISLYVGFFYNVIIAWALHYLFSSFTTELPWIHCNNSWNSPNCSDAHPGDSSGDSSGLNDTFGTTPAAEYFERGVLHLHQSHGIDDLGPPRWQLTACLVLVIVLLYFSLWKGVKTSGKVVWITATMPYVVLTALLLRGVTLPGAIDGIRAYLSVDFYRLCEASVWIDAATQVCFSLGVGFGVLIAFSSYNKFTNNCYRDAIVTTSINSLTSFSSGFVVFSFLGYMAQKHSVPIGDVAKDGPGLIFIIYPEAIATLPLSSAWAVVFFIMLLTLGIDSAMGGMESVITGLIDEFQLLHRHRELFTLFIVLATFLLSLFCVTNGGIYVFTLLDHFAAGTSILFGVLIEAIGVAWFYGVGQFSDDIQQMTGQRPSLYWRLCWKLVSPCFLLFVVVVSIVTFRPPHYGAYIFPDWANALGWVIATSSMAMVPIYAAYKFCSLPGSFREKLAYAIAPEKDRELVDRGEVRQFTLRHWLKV

A word on the inhibition: it is the change of the read-out against control, counted positive when it falls. As to `CCCCc1nc(Cl)c(CO)n1Cc1ccc(-c2ccccc2-c2nnn[nH]2)cc1`, the inhibition is -0.59% in test [1]; 8.7% in [2]; 0.95% in [3]; 7.06% in [4]; 43.4% in test [5]; -1.17% in test [6]. The inhibition in test [7] is 13.1%; in test [8] it was 16.9%; in test [9] it was 19.9%; in test [10], -3.17%; in test [11], 31.4%.

For `Cc1cccc(NC(=O)N[C@@H]2N=C(c3ccccc3)c3ccccc3N(C)C2=O)c1`, the inhibition in [1] was -7.27%; in test [12], 53.4%; in [4], 18.6%; in test [5], 24.6%; in test [13], 44.1%; in [6], 5.79%. The inhibition in test [14] is 12.5%; in test [9] it was -9.64%; in test [10] it was 16.2%; in [11], -5.59%.

As to `CC(C)NCC(O)COc1cccc2ccccc12` (stereo unspecified), the inhibition in [1] was 14.6%; in [3], 6.07%; in [4], 3.24%; in test [5], 87.2%; in test [13], 38.4%; in test [6] it was 17.4%. The inhibition in test [7] was 12.7%; in test [8], -2.95%; in [9], 77.5%; in [10], 9.59%; in [11], 5.07%.

For the molecule `CNC[C@H](O)c1cccc(O)c1`, the inhibition was 27.4% in [1]; 25.3% in [12]; -2.82% in test [3]; 23.9% in test [4]; 48.1% in test [5]; 3.06% in [15]. In addition, the inhibition in test [6] is 2.89%; in test [7] it was 26.6%; in test [8], 26.3%; in test [14], -2.34%; in [9], 1.52%; in test [10], 15.9%. For the same molecule, in test [11], the inhibition was 13.1%.

For the molecule `CC(C)(C)NC[C@H](O)COc1nsnc1N1CCOCC1`, the inhibition in test [1] is 2.77%; in test [3], 2.12%; in [4] it was 7.32%; in test [5] it was 19.4%; in test [13], 31.4%; in test [6], -1.47%. The inhibition in [7] was 8.6%; in test [9] it was 39.4%; in test [10], 17.9%; in [11], 10.1%.

For the molecule `C=CCN1C[C@H](C)N([C@H](c2ccc(C(=O)N(CC)CC)cc2)c2cccc(O)c2)C[C@H]1C`, the inhibition in test [1] was 16.8%; in test [12], 2.09%; in test [4] it was 19.5%; in test [5] it was 31.4%; in [13], 26.9%; in test [15], 13.7%. Besides, the inhibition in test [6] was 98.5%; in test [14], 8.35%; in [10] it was 27.1%; in test [11] it was 0.95%.

As for `COc1cc2c(CCNC(C)=O)c[nH]c2cc1Cl`, the inhibition in [1] was 1.85%; in [12], -6.6%; in test [4], 16.3%; in [5], 45.4%; in test [13], 14.1%; in test [6] it was -1.77%. Besides, the inhibition is 6.2% in test [7], 3.86% in [14], -4.64% in [9] and 25.2% in test [10].

As for `CN(C)C(=O)C(CCN1CCC(O)(c2ccc(Cl)cc2)CC1)(c1ccccc1)c1ccccc1`, the inhibition in test [1] was 42.9%; in test [2], -4.2%; in [3], 2.95%; in [4], 18.4%; in test [5] it was 55.2%; in test [13], 64.3%. The inhibition in test [7] was 38%; in test [8], 23.2%; in test [9] it was 41.4%; in [10], 20.1%; in test [11], 10.4%.

Turning to `C[C@@H](N)Cc1c[nH]cn1`, the inhibition in test [1] is 8.76%; in [12], -2.41%; in test [3], -5.67%; in [4], 14.9%; in [5] it was 6.42%; in test [13], 3.36%. The inhibition in [15] is 6.49%; in test [8], -3.48%; in test [14], 8.33%; in test [9], -9.3%; in test [10], 5.1%; in [11], 103%.

As to `N=C(N)SCCc1c[nH]cn1`, the inhibition is -6.16% in test [1]; -6.33% in [12]; 3.8% in test [2]; 26.2% in test [4]; -0.41% in test [13]; -3.13% in test [6]. For the same molecule, the inhibition was 8.64% in [7]; -5.14% in test [8]; 6.96% in [14]; 8.52% in test [10]; 98.6% in test [11].

Consider `CCN(CC)CCCCC1CCN(CC(=O)N2c3ccccc3C(=O)Nc3cccnc32)CC1`, for which the inhibition in test [1] is -8.07%; in test [12] it was 9.83%; in [2], 4.03%; in test [3] it was 72.4%; in [5], 33.2%; in [13] it was 28.1%. Further, the inhibition in test [6] is 10.4%; in [7] it was -4.13%; in [14], -7.08%; in [9] it was 0.4%; in [10], 14.9%; in test [11] it was 43%.

For the molecule `CCCn1c(=O)c2[nH]c(-c3cnn(Cc4cccc(C(F)(F)F)c4)c3)nc2n(CC)c1=O`, the inhibition in [1] is -4.72%; in test [2], -6.47%; in test [3] it was -2.1%; in [4] it was -4%; in test [5] it was 10.2%; in test [13], 45.8%. The inhibition in test [6] is -6.55%; in test [14], -0.63%; in [10] it was 13.9%; in test [11] it was 3.01%.
